Reference: patent US20220281830A1, “SALT” (NIPPON SHINYAKU CO., LTD., priority 2019, published 2022)
Read-outs that look alike come from different tables or passages of the source.

Key:
[1] = Rat in vivo study: plasma pharmacokinetics of MRE-269 after oral capsule dosing; parameters: species or system Sprague-Dawley rat
Method: Qualicaps, Nara, Japan) and given orally to male Sprague-Dawley rat (Japan SLC, Sizuoka, Japan) at a dose level of 1 mg/capsule/body. […] • The concentration of MRE-269 in plasma sample was determined by high performance liquid chromatography (HPLC) tandem mass spectrometry (LC-MS/MS). […] For LC-MS/MS, a Nexera HPLC system (Shimadzu, Kyoto, Japan) equipped with an InertSustain C18 column (2-μm particle size; 2.1 mm i.d.×50 mm; GL Science) connected to a TQ4500 or TQ5500 tandem mass spectrometer (Sciex, Framingham, Mass.) was used. The HPLC mobile phase was 0.1% formic acid (solvent A) and acetonitrile (solvent B). A gradient was run at 85% solvent B in 2.5 min at a flow rate of 0.4 mL/min and 40° C. Each analyte detected was quantified in positive ion multiple reaction monitoring mode by applying the following precursor-to-product transitions: […] • The pharmacokinetic parameters were calculated with Phoenix WinNonlin version 8.1.0 (Certara Princeton, NJ). Relative bioavailability (BA) to MRE-269 was calculated according to the following equation. Relative BA (%)=(AUC0-24(each salt)/(AUC0-24(MRE-269, mean)×100

[2] = Thermodynamic stability of the free-form crystal; type: physicochemical; settings: free form produced according to Example 42 of PTL 1
Source text: A method for producing Compound B is disclosed in Example 42 of PTL 1. […] Thus, the present invention was completed.

[3] = MRE-269 in plasma, male Sprague-Dawley rat, oral, HPMC capsule, 1 mg/capsule/body

Compound: CC(C)N(CCCCOCC(=O)[O-])c1cnc(-c2ccccc2)c(-c2ccccc2)n1.[K+] [Potassium salt, Potassium salt of 2-[4-[(5,6-diphenylpyrazin-2-yl)-propan-2-ylamino]butoxy]acetic acid]
- t1/2 ([1]; rat, in vivo, po): 8.96 ± 8.00 h
- tmax ([1]; rat, in vivo, po): 3.25 ± 3.20 h

Compound: CC(C)N(CCCCOCC(=O)O)c1cnc(-c2ccccc2)c(-c2ccccc2)n1 [form-III crystal, 2-(4-((5,6-diphenylpyrazin-2-yl)(isopropyl)amino)butoxy)acetic acid]
- thermodynamic stability [2]: thermodynamically unstable

Compound: CC(C)N(CCCCOCC(=O)O)c1cnc(-c2ccccc2)c(-c2ccccc2)n1.NC(CO)(CO)CO [Tromethamine salt, Tromethamine salt of 2-[4-[(5,6-diphenylpyrazin-2-yl)-propan-2-ylamino]butoxy]acetic acid]
- AUC0-last [1, 3]: 7170 ± 2320 ng·h/mL
- AUC0-∞ [1, 3]: 6520 ± 1890 ng·h/mL
- Cmax [1, 3]: 949 ± 555 ng/mL
- t1/2 [1, 3]: 3.48 ± 0.43 h
- tmax [1, 3]: 4.00 ± 3.94 h
- relative BA ([1]; relative to MRE-269: AUC0-24(each salt)/AUC0-24(MRE-269, mean)×100, rat, oral, 1 mg/capsule/body): 128 ± 41%

Compound: CC(C)N(CCCCOCC(=O)O)c1cnc(-c2ccccc2)c(-c2ccccc2)n1 [MRE-269, 2-(4-((5,6-diphenylpyrazin-2-yl)(isopropyl)amino)butoxy)acetic acid, reference compound]
- AUC(0-t) [1, 3]: 5620 ± 1920 ng·h/mL
- Cmax ([1]; MRE-269 in plasma, male Sprague-Dawley rat, oral, HPMC capsule, 1 mg/capsule/body, read-out: Cmax): 475 ± 142 ng/mL
- tmax ([1]; MRE-269 in plasma, male Sprague-Dawley rat, oral, HPMC capsule, 1 mg/capsule/body, read-out: tmax): 6.5 ± 3 h

Compound: CC(C)N(CCCCOCC(=O)O)c1cnc(-c2ccccc2)c(-c2ccccc2)n1.O=S(=O)(O)CCS(=O)(=O)O [1,2-Ethanedisulfonate salt (Pattern A), 1,2-Ethanedisulfonate salt of 2-[4-[(5,6-diphenylpyrazin-2-yl)-propan-2-ylamino]butoxy]acetic acid]
- t1/2 ([1]; rat, in vivo, po): 3.99 ± 2.01 h
- tmax ([1]; rat, in vivo, po): 3.10 ± 2.30 h

Compound: CC(C)N(CCCCOCC(=O)[O-])c1cnc(-c2ccccc2)c(-c2ccccc2)n1.[Na+] [Sodium salt, Sodium salt of 2-[4-[(5,6-diphenylpyrazin-2-yl)-propan-2-ylamino]butoxy]acetic acid]
- tmax ([1]; rat, in vivo, po): 7.50 ± 1.91 h

Compound: CC(C)N(CCCCOCC(=O)[O-])c1cnc(-c2ccccc2)c(-c2ccccc2)n1.CC(C)N(CCCCOCC(=O)[O-])c1cnc(-c2ccccc2)c(-c2ccccc2)n1.[Ca+2] [Calcium salt (Pattern 1), Calcium salt of 2[4-[(5,6-diphenylpyrazin-2-yl)-propan-2-ylamino]butoxy]acetic acid]
- tmax ([1]; rat, in vivo, po): 7.50 ± 3.79 h
